Holding throughout (format): in vivo
Assay [1] has as its system rat Transient Middle Cerebral Artery Occlusion (tMCAO) model. In words: Neuroscore (Modified Neurological Rating Scale, mNRS) in rat tMCAO stroke model. Here is the method: (§1) Transient middle cerebral artery occlusion was performed according to the method described R. Schmid-Eisaesser et al. Briefly, the right CCA (Common Carotid Artery) was exposed through a midline neck incision and carefully dissected free from surrounding nerves and fascia —from its bifurcation to the base of the skull. The occipital artery branches of the ECA (External Carotid Artery) were then isolated, and these branches were dissected and coagulated. The ECA was dissected further distally and coagulated along with the terminal lingual and maxillary artery branches, which was then divided. The ICA (Internal Carotid Artery) was isolated and carefully separated from the adjacent vagus nerve, and the pterygopalatine artery was ligated close to its origin with a 5-0 nylon suture (SMI, Belgium). Next a 4-0 silk suture was tied loosely around the mobilized ECA stump, and a 4 cm length of 4-0 monofilament nylon suture (the tip of the suture was blunted by using a flame, and the suture was coated with polylysine, prior to insertion) was inserted through the proximal ECA into the ICA and thence into the circle of Willis, effectively occluding the MCA. The surgical wound was closed and the animals were returned to their cages to recover from anesthesia. One hour and a half after occlusion rats were re-anesthetized, the monofilament was withdrawn to allow reperfusion, the surgical wound was closed and rats were returned to their cages.
Animals were subjected to the mNSS test (Neuroscore) at Day 2, 24 hours post reperfusion. Only animals with an overall score of ≧10 were included in this Example.
Each animal was also subjected to a neuroscore test. The Modified Neurological Rating Scale (mNRS), or Neuroscore, was performed before the operation, on Day 2 and on Day 15, Day 22, Day 29, Day 36 Day 43 and Day 50. The individual making the behavioral assessments was unaware of the drug/dose given (blind test). A total Neuroscore of 18 was possible, with higher scores correlating to worse functioning.
As in Example 1, each animal was subjected to a neuroscore test. The Modified Neurological Rating Scale (mNRS), or Neuroscore, was performed before the operation as described in Example 1 on day 2, day 29, day 43, day 50, day 57, day 64 and day 71. The individual making the behavioral assessments was unaware of the drug/dose given (blind test).
As in Examples 1 and 2, each animal was subjected to a neuroscore test. The Modified Neurological Rating Scale (mNRS), or Neuroscore, was performed before the operation as described in Example 1 on day 2, day 29, day 43, day 50, day 57, day 64, day 71. Day 78, and day 85. The individual making the behavioral assessments was unaware of the drug/dose given (blind test).

Assay [2] shares this test system. In words: Stepping test (forelimb akinesia) in rat tMCAO stroke model. Here is the method:
as §1
Animals were tested for forelimb akinesia in a stepping test (ST). The animal was held by its hind limbs fixed with one hand and the forelimb not to be monitored with the other, while the unrestrained fore-paw touched the table. The number of adjusting steps were counted while the animal is moved, sideways along the table surface (85 cm in approximately five seconds), in the forehand & backhand direction for both forelimbs.
Animals were also tested for forelimb akinesia in a stepping test (ST) as described in Example 1 on days 29, 43, 50, 57, 64 and 71.
Animals were also tested for forelimb akinesia in a stepping test (ST) as described in Example 1 on days 29, 43, 50, 57, 64, 71, 78 and 85.

For assay [3] the test system is unchanged. In words: Limb placement test in rat tMCAO stroke model. Here is the method: as §1
Animals were subjected to a limb placement test. The limb placing tests were divided into both forelimb and hindlimb tests. For the forelimb-placing test, the examiner held the rat close to a tabletop and scored the rat's ability to place the forelimb on the tabletop in response to whisker, visual, tactile or proprioceptive stimulation. Similarly, for the hindlimb placing test, the examiner assessed the rat's ability to place the hindlimb on the tabletop in response to tactile and proprioceptive stimulation. Separate sub-scores are obtained for each mode of sensory input and added to give total scores (for the forelimb placing test: 0=normal, 12=maximally impaired; for the hindlimb placing test: 0=normal; 6=maximally impaired). Scores were given in half-point increments (see below).
Forelimb placing test (0-12);
Visual placing (forward (0-2), sideways (0-2))
Tactile placing (dorsal (0-2), lateral (0-2))
Proprioceptive placing (0-2)
Animals were also subjected to a limb placement test as described in Example 1 on days 29, 43, 50, 57, 64 and 71.
Animals were also subjected to a limb placement test as described in Example 1 on days 29, 43, 50, 57, 64, 71, 78 and 85.

Assay [4] has the same test system. In words: Body swing test in rat tMCAO stroke model. Here is the method: as §1
Animals were also subjected to a body swing test. Each rat was held approximately one inch from the base of its tail. It was then elevated to an inch above a surface of a table. The rat was held in the vertical axis, defined as no more than 10° to either the left or the right side. A swing was recorded whenever the rat moved its head out of the vertical axis to either side. Before attempting another swing, the rat had to return to the vertical position for the next swing to be counted, Twenty (20) total swings were counted. A normal rat typically has an equal number of swings to either side. Following focal ischemia, the rat tends to swing to the contralateral side (left side in this Example). Body swing scores were expressed as a percentage of […] over total swings.
Animals were also subjected to a body swing test as described in Example 1 on days 29, 43, 50, 57, 64 and 71.
Animals were also subjected to a body swing test as described in Example 1 on days 29, 43, 50, 57, 64, 71, 78 and 85.

For assay [5] the test system is unchanged. Put plainly: Cylinder test of motor function in rat tMCAO stroke model. The following applies: Example 2; 50 μg/kg SC daily from day 29; day 57 (day 26 all animals ~0.3; vehicle day 57 ~0.4). Here is the method:
Transient middle cerebral artery occlusion was performed according to the method described R. Schmid-Eisaesser et al. Briefly, the right CCA (Common Carotid Artery) was exposed through a midline neck incision and carefully dissected free from surrounding nerves and fascia —from its bifurcation to the base of the skull. The occipital artery branches of the ECA (External Carotid Artery) were then isolated, and these branches were dissected and coagulated. The ECA was dissected further distally and coagulated along with the terminal lingual and maxillary artery branches, which was then divided. The ICA (Internal Carotid Artery) was isolated and carefully separated from the adjacent vagus nerve, and the pterygopalatine artery was ligated close to its origin with a 5-0 nylon suture (SMI, Belgium). […]
The number of wall contacts performed independently with the left and right forepaw were counted and noted up to a total of 20 wall contacts per animal per session, and only supporting contacts were counted (i.e., full appositions of the paws with open digits to the cylinder walls).

The test system is the same in assay [6]. In words: Blood vessel diameter (Flow-R Laser Doppler) in rat tMCAO stroke model. Here is the method:
as §1
(§2) Evaluation of the blood flow in the brain cortex and vessel constriction was carried out using a Flow-R Laser Doppler system, in which intracranial blood flow and vessel diameter (constriction/dilation) was monitored.

The test system is the same in assay [7]. Put plainly: Blood flow in the brain cortex (Flow-R Laser Doppler) in rat tMCAO stroke model. The following applies: for enhanced blood flow as compared to vehicle controls: Example 1 first phase, day 50. Here is the method:
as §1, §2

Where [8] appears, read: Example 3, SC daily from day 29, TXA127 100-1,000 μg/kg, TXA302 1-500 μg/kg, by day 43, maintained through day 85.
Setting [9] is: Example 3, SC daily from day 29, TXA127 100-1,000 μg/kg, TXA302 1-500 μg/kg, by day 43, maintained through Day 85.
The mark [10] stands for this setting: Example 3, SC daily from day 29, TXA127 100-1,000 μg/kg, TXA302 1-500 μg/kg, by day 43, maintained or improved through day 85.
The mark [11] stands for this setting: Example 3, SC daily from day 29, TXA127 100-1,000 μg/kg, TXA302 1-500 μg/kg, by day 43.
The mark [12] stands for this setting: Example 1 second phase, 500 ug/kg SC from day 51, measured day 108.

On to “Ala^1-Arg^2-Val^3-Ser^4-Ile^5-His^6-Cys^7 (ARVSIHC) [TXA302, angiotensin (1-7) peptide]”, for which the “neuroscore as compared to vehicle control animals” value in assay [1] (Example 2, 50 μg/kg SC daily from day 29 (28 days post-tMCAO), by day 43, maintained through day 71) is “statistically significant reduction in neuroscore”; in assay [1] (setting [8]), “statistically significant reduction in neuroscore”. Also, the “performance in stepping test as compared to vehicle control animals” value in assay [2] (Example 2, 50 μg/kg SC daily from day 29, by day 43, maintained through Day 71) was “significant improvement in performance”; in assay [2] (setting [9]), “significant improvement in performance”. The “performance in limb placement test as compared to vehicle control animals” value in assay [3] (Example 2, 50 μg/kg SC daily from day 29, by day 43, maintained or improved through day 71) is “statistically significant improvements in performance”; in assay [3] (setting [10]), “statistically significant improvements in performance”. The “performance in body swing test” value in assay [4] (Example 2, 50 μg/kg SC daily from day 29, by day 50, maintained through Day 71) is “statistically significant improvement in performance”; in assay [4] (setting [11]), “statistically significant improvement in performance”. In addition, the “cylinder test ratio of left paw to right paw contacts” value in assay [5] is around 0.75.

In the case of “Asp^1-Arg^2-Val^3-Tyr^4-Ile^5-His^6-Pro^7 (DRVYIHP; listed as Homo sapiens) [TXA127]”, the “neuroscore as compared to vehicle control animals” value in assay [1] (Example 1 first phase, 100, 300, 500 μg/kg SC daily or Alzet pump, started 24 hours after tMCAO, all treatment groups by day 15, maintained through day 50) is on record as “statistically significant reduction in neuroscore”; in assay [1] (Example 1 second phase, 500 ug/kg SC daily, first treatment day 51 after tMCAO, by day 65), “statistically significant improvement”; in assay [1] (setting [8]), “statistically significant reduction in neuroscore”. Further, the “performance in stepping test as compared to vehicle control animals” value in assay [2] (Example 1 first phase, 100, 300, 500 μg/kg SC or Alzet, started 24 hours after tMCAO, all treatment groups by day 22) is recorded as “significant improvement in performance”; in assay [2] (setting [9]) it was “significant improvement in performance”. In addition, in assay [2] (Example 1 second phase, 500 ug/kg SC daily from day 51, by day 65, increasing significance by day 86), the “performance in stepping test as compared to vehicle control group” value is “statistically significant improvement in performance”. Also, the “performance in forelimb placement test as compared to vehicle control” value in assay [3] (Example 1 first phase, 100, 300, 500 μg/kg SC or Alzet, started 24 hours after tMCAO, all treatment groups by day 15, continued through day 50) is recorded as “statistically significant improvements in performance”. For the same substance, in assay [3] (Example 1 second phase, 500 ug/kg SC daily from day 51, beginning on day 72, trend as early as day 58), the “performance in forelimb placement test” value is “statistically significant improvement in performance”. For the same substance, the “performance in limb placement test as compared to vehicle control animals” value in assay [3] (setting [10]) was “statistically significant improvements in performance”. Also, the “performance in body swing test” value in assay [4] (Example 1 first phase, 100, 300, 500 μg/kg SC or Alzet, started 24 hours after tMCAO, by day 15, statistical significance by day 22 in some groups, day 29 in all treatment groups) is listed as “improvement in performance”; in assay [4] (Example 1 second phase, 500 ug/kg SC daily from day 51, as early as day 58, maintained throughout observation period), “trend toward improved performance”; in assay [4] (setting [11]), “statistically significant improvement in performance”. Further, the “improvement in blood vessel diameter as compared to vehicle controls” value in assay [6] (Example 1 first phase, continuous infusion via Alzet pump, day 50) is given as around 40%. Further, the “enhanced blood vessel diameter, larger than vehicle control animals” value in assay [6] (Example 1 first phase, subcutaneously administered, each treatment group (100, 300, 500 μg/kg), day 50) was “approximately 20%”. In assay [6] (setting [12]), the “vessel diameter as compared to vehicle control group” value is reported as “improved”. The “enhanced blood flow as compared to vehicle controls” value is on record as around 30% in assay [7] (continuous infusion via Alzet pump) and around 35% in assay [7] (subcutaneously administered, each treatment group). For the same substance, the “blood flow ratio as compared to vehicle control group” value in assay [7] (setting [12]) was “improved”.

Source of the values: patent US9333233B2, “Methods and compositions for the delayed treatment of stroke” (TARIX PHARMACEUTICALS LTD., priority 2014, dated 2016).
